According to US12378211B2, “Carbonic anhydrase inhibitors and antibiotics against multidrug resistant bacteria” (Purdue Research Foundation, priority 2018, dated 2025):
Where two headings read alike, the source gives them in different places.

What was measured:
[1] = system: Enterococcus faecium E417-HM-965; assay: MIC of CAIs in BHIB and TSB; assay type: cell-based; conditions: Enterococcus faecium, read-out: MIC
Experimental: (§1) The minimum inhibitory concentrations (MICs) of CAIs were tested against clinical isolates of vancomycin sensitive and vancomycin resistant Enterococci strains as per the guidelines provided by the Clinical and Laboratory Standards Institute (CLSI). The selected strains of Enterococci were streaked on Tryptic Soy Agar (TSA) plates and let grow for 24 hours at 37° C. Afterwards, a bacterial solution equivalent to 0.5 McFarland standard was prepared and diluted in tryptone soy broth (TSB) or brain heart infusion broth (BHIB) to achieve a bacterial concentration of about 5×10^5 CFU/mL and seeded in 96-well well plates. Compounds and control drugs were added in the first row of the 96-well plates and serially diluted along the plates. Plates were then incubated aerobically at 37° C. for 18-20 hours. MICs reported in Table 5 are the minimum concentration of the compounds/control drugs that could inhibit completely the visual growth of the bacteria.

[2] = system: Enterococcus faecium Patient #2-1-NR-31909; assay: MIC of CAIs in BHIB and TSB; assay type: cell-based; conditions: Enterococcus faecium, read-out: MIC
Experimental: as §1

[3] = system: Enterococcus fecalis Strain SF 24397 NR31970; assay: MIC of CAIs in BHIB and TSB; assay type: cell-based; conditions: Enterococcus, read-out: MIC
Experimental: as §1

[4] = system: Enterococcus faecalis—S613 HM-334; assay: MIC of CAIs in BHIB and TSB; assay type: cell-based; conditions: Enterococcus, read-out: MIC
Experimental: as §1, with “bacteria. The MIC values of CAIs against the tested VRE strains were higher in BHIB than in TSB. This may be due to binding of these drugs to proteins. […] They inhibited the VRE strains at MIC values ranging from 1 to 4 μg/mL.” for “bacteria.”

[5] = system: vancomycin-resistant E. faecium; assay: Mouse model of GI colonization by VRE; assay type: in vivo, C57BL/6 mice
Text: Feasibility in vivo study: AZM reduces VRE load in the intestines and faeces. The promising feature, and the specific and potent antimicrobial activity of CAIs, prompted us to evaluate the in vivo efficacy of AZM in our established mouse model of GI colonization by enterococci with features that mimic the antibiotic-induced enterococcal expansion observed in humans (Mohammad, H. et al., Int J Antimicrob Agents 2018, 51, 897-904; Abdelkhalek, A, et al., PLoS One 2018, 13, e0199710). We tested AZM (two clinical doses 10 and 20 mg/kg) in female 12-week-old C57BL/6 mice (n=5 mice per group) that were sensitized with ampicillin ([…] in drinking water) for 7 days to reduce the microbiota present in the gastrointestinal tract and colonized with 10^8 CFU/mL of vancomycin-resistant E. faecium.
We thought that the rapid absorption of AZM from the gastrointestinal tract would limit their exposure time to VRE present in the gastrointestinal tract.
Mice were treated for 8 days with 10 mg/kg of drugs by oral gavage.

E. faecium NR 31909 = conditions: oral 20 mg/kg daily for 4 days
Text: Saline was used as a negative control. Mice were euthanized on day 5 and organs (liver, spleen and kidneys) were aseptically removed and homogenized, and viable VRE were enumerated by serial dilution and plating.

[6] = cited from earlier work
[7] = cited from earlier work; remark: listed apart in the source
[8] = system: fibroblast-like monkey kidney cell line (VERO cell); assay: In vitro cytotoxicity, MTS assay, VERO cells; assay type: cell-based; conditions: at concentration up to 128 μg/mL; tested at 64 and 128 μg/mL; two hours
Experimental: Toxicity assessment: Compounds AS005H, AS005J, AS004B, AS005K, AS005A and 005D were assayed (at concentrations of 64 and 128 μg/mL) against a fibroblast-like monkey kidney cell line (VERO cell) to determine the potential toxic effect in vitro. Briefly, cells were cultured in Minimum Essential Medium (MEM) supplemented with 10% fetal bovine serum (FBS), 1 mM sodium pyruvate, and penicillin-streptomycin at 37° C. with CO2 (5%). Control cells received DMSO alone at a concentration equal to that in drug-treated cell samples. The cells were incubated with the compounds (in triplicate) in a 96-well plate at 37° C. with CO2 (5%) for two hours. The assay reagent MTS 3-(4,5-dimethylthiazol-2-yl)-5-(3-carboxymethoxyphenyl)-2-(4-sulfophenyl)-2H-tetrazolium) (Promega, Madison, WI, USA) was subsequently added and the plate was incubated for four hours. Absorbance readings (at OD490) were taken using a kinetic microplate reader (Molecular Devices, Sunnyvale, CA, USA). The quantity of viable cells after treatment with each compound was expressed as a percentage of the viability of DMSO-treated control cells (average of triplicate wells±standard deviation). The toxicity data was analyzed via a two-way ANOVA, with post hoc Dunnet's multiple comparisons test (P<0.05), utilizing GraphPad Prism 6.0 (GraphPad Software, La Jolla, CA).
Percent viable mammalian cells (measured as average absorbance ratio (test agent relative to DMSO) for cytotoxicity analysis of compounds AS005H, AS005J, AS004B, AS005K, AS005A and 005D (tested in triplicates) at 64 and 128 μg/mL against VERO cells using the MTS 3-(4,5-dimethylthiazol-2-yl)-5-(3-carboxymethoxyphenyl)-2-(4-sulfophenyl)-2H-tetrazolium) assay. Dimethyl sulfoxide (DMSO) was used as a negative control to determine a baseline measurement for the cytotoxic impact of each compound. The absorbance values represent an average of a minimum of three samples analyzed for each compound. Error bars represent standard deviation values for the absorbance values.

**Q.** Which results are given for CC(=O)Nc1nnc(S(N)(=O)=O)s1 [Acetazolamide, reference compound]?
**A.** MIC ([1]; E417HM965, BHIB): 8 µg/mL; MIC ([1]; E417HM965, TSB, Table 5): 2 µg/mL; MIC ([2]; BHIB): 64 µg/mL; MIC ([2]; TSB, Table 5): 2 µg/mL; MIC ([3]; BHIB): > 128 µg/mL; MIC ([3]; TSB, Table 5): 2 µg/mL; MIC ([4]; BHIIB): > 128 µg/mL; MIC ([4]; TSB, Table 5): 2 µg/mL; VRE decolonization compared with linezolid ([5]; AZM 10 and 20 mg/kg, linezolid 10 mg/kg once daily for 8 days): outperformed linezolid; VRE in feces, cecal content and ileal content compared to control mice ([5]; once a day at 10 mg/kg or 20 mg/kg, feces as early as 3rd day): significant reduction; mice protected against a lethal dose (survival) (E. faecium NR 31909; from two hours after challenge): 100%; reduction of bacterial load in internal organs (E. faecium NR 31909; liver, spleen, kidneys on day 5): superior to linezolid; time to peak plasma concentrations ([6]; after oral administration): 1 to 3 h; serum concentration ([6]; after single oral dose): 20000 to 100000 ng/mL; oral LD50 (mouse) [7]: 4300 mg/kg

**Q.** Which “toxicity to VERO cells (percent viable cells relative to DMSO)” value [8] does the source give for CC(C)(C)C(=O)Nc1nnc(S(N)(=O)=O)s1 [CAI0010, N-(5-Sulfamoyl-1,3,4-thiadiazol-2-yl) pivalamide] here?
**A.** Its value is “non-toxic”.

**Q.** Which “toxicity to VERO cells (percent viable cells relative to DMSO)” value [8] does the source give for CC(C)C(=O)Nc1nnc(S(N)(=O)=O)s1 [CAI0011, N-(5-Sulfamoyl-1,3,4-thiadiazol-2-yl) isobutyramide] here?
**A.** Its value is “non-toxic”.

**Q.** With NS(=O)(=O)c1nnc(NC(=O)CCC2CCCC2)s1 [CAI0015] as the compound, how does the “toxicity to VERO cells (percent viable cells relative to DMSO)” value [8] read?
**A.** The value was “non-toxic”.

**Q.** Which “toxicity to VERO cells (percent viable cells relative to DMSO)” value [8] does the source give for CC(C)=CC(=O)Nc1nnc(S(N)(=O)=O)s1 [CAI0016, 3-Methyl-N-(5-sulfamoyl-1,3,4-thiadiazol-2-yl) but-2-enamide] here?
**A.** Its value is “non-toxic”.

**Q.** With CCc1ccc(C(=O)Nc2nnc(S(N)(=O)=O)s2)cc1 [CAI0017, 4-Ethyl-N-(5-sulfamoyl-1,3,4-thiadiazol-2-yl)benzamide] as the compound, how does the “toxicity to VERO cells (percent viable cells relative to DMSO)” value [8] read?
**A.** The value was “non-toxic”.

**Q.** Which results are given for CC(=O)NC[C@H]1CN(c2ccc(N3CCOCC3)c(F)c2)C(=O)O1 [Linezolid, reference compound]?
**A.** MIC ([3]; TSB, Table 5): 1 µg/mL; MIC ([4]; BHIIB): 1 µg/mL; MIC ([4]; TSB, Table 5): 1 µg/mL
